Two compounds from paper PMC4159296, “Antibodies to the Extracellular Pore Loop of TRPM8 Act as Antagonists of Channel Activation” (PLoS ONE, 2014) can be followed below.

Format in all cases: cell-based
One assay concerns the target T1, rat TRPM8 (Rattus norvegicus, UniProt Q8R455).
T1 construct: expressed in transfected cells; host or cells: T-REx-CHO (Chinese hamster ovary), tetracycline-induced
Kind of assay: agonist-induced 45Ca2+ uptake assay, CHO cells expressing rat TRPM8. The following applies: mean ± SD. The procedure:
(§1) Complementary DNAs of recombinant human, rat and mouse TRPM8 were stably transfected into Tetracycline-Regulated Expression cell line, T-REx-Chinese hamster ovary cell line from Invitrogen, Inc. (Carlsbad, CA). Twenty four hours before the assay, cells were seeded in Cytostar-T 96-well plates at a density of 3.0×10^4 per well, and TRPM8 channel expression was induced with 0.5 µg/ml tetracycline. On the day of the assay, culture media were removed, and cells were incubated with TRPM8 antibody (ACC-049), antagonist M8-B, or control IgG for 30 min before addition of ^45Ca^2+. Stock solutions of ACC-049, M8-B, and control IgG were diluted to the desired final concentrations in the assay buffer (F-12 Ham's containing 15 mM HEPES and 0.1 mg/ml BSA) keeping the final concentration of DMSO lower than 0.5% for M8-B. The activity of TRPM8 was monitored as function of cellular uptake of radioactive calcium. The final concentration of ^45Ca^2+in the ^45Ca^2+ uptake assay was 10 µCi/ml. […] For cold activation of TRPM8, cold assay buffer at 10°C was used. ACC-049 was assayed in cells stably expressing human, rat, or mouse TRPM8 channels. The other commercial antibodies listed in Table 1 were assayed at a single concentration in 30 µl in icilin induced activation of human TRPM8 channels. The TRPM8 antagonist M8-B was used as a positive control and control IgG was used as a negative control in all assays. TRPM8 activation was calculated as percent of control (POC) with agonist (cold, icilin or menthol) induced radioactive calcium uptake set as 100 percent and assay buffer only plus ^45Ca^2+ set as zero percent with exception of cold activation, where blockade with M8-B at 1 µM was set as zero percent. Evaluation of antagonism at heat activation of TRPV1 [26], and noxious cold temperature activation of TRPA1 [24] was conducted as reported previously.
(§2) GraphPad Prism 5.0 (GraphPad Software, Inc., San Diego, CA) software was used to plot the data and to calculate the 50% inhibitory concentrations (IC50) of compounds and antibodies using a sigmoidal dose-response equation.

The target of the next assay is T2, human TRPM8 (Homo sapiens, UniProt Q7Z2W7).
T2 construct: expressed in transfected cells; host or cells: T-REx-CHO (Chinese hamster ovary), tetracycline-induced
The assay can be described thus: agonist-induced 45Ca2+ uptake assay, CHO cells expressing human TRPM8. As to conditions: for IC50: CHO cells, mean ± SD; for block of icilin-induced 45Ca2+ uptake, human TRPM8 in CHO cells: single concentration/volume, 30 µl antibody solution, stock concentrations not provided, Fig. 6A. The procedure: as §1, §2

Assay [1] addresses T3, endogenous TRPM8 expressed in rat dorsal root ganglion neurons (Rattus norvegicus, UniProt Q8R455).
T3 construct: endogenous in cells; host or cells: primary dorsal root ganglion neurons from male Sprague Dawley rats
Kind of assay: icilin-induced 45Ca2+ uptake assay in freshly isolated rat DRG neurons. The following applies: 1 µM icilin; same single concentration/volume of antibodies; Fig. 6B.

For the next assay, the target named is T4, mouse TRPM8 (Mus musculus, UniProt Q8R4D5).
T4 construct: expressed in transfected cells; host or cells: T-REx-CHO (Chinese hamster ovary), tetracycline-induced
The assay can be described thus: agonist-induced 45Ca2+ uptake assay, CHO cells expressing mouse TRPM8. The following applies: mean ± SD. The protocol: as §1, §2

Another assay concerns the target human TRPV1 (Homo sapiens, UniProt Q8NER1). The assay can be described thus: heat activation of human TRPV1, 45Ca2+ uptake. As to conditions: ACC-049 and control IgG 2.5 µM; peptide 10 µM; Fig. 2. The protocol: as §1, with “ACC-049 was assayed in cells stably expressing human, rat, or mouse TRPM8 channels. The other commercial antibodies listed in Table 1 were assayed at a single concentration in 30 µl in icilin induced activation of human TRPM8 channels. The TRPM8 antagonist M8-B was used as a positive control and control IgG was used as a negative control in all assays.” left out, “Evaluation of antagonism at heat activation of TRPV1 [26], and noxious cold temperature activation of TRPA1 [24] was conducted as reported previously.” left out

Another assay deals with human TRPA1 (Homo sapiens, UniProt O75762). Kind of assay: noxious cold temperature activation of human TRPA1, 45Ca2+ uptake. The following applies: ACC-049 and control IgG 2.5 µM; peptide 10 µM; Fig. 2. The protocol:
as §1, with “ACC-049 was assayed in cells stably expressing human, rat, or mouse TRPM8 channels. The other commercial antibodies listed in Table 1 were assayed at a single concentration in 30 µl in icilin induced activation of human TRPM8 channels. The TRPM8 antagonist M8-B was used as a positive control and control IgG was used as a negative control in all assays.” left out, “Evaluation of antagonism at heat activation of TRPV1 [26], and noxious cold temperature activation of TRPA1 [24] was conducted as reported previously.” left out

“Also recorded” adds a separate entry of the source. Read-outs that look alike come from different tables or passages of the source.

T4 sequence (Q8R4D5 whole entry): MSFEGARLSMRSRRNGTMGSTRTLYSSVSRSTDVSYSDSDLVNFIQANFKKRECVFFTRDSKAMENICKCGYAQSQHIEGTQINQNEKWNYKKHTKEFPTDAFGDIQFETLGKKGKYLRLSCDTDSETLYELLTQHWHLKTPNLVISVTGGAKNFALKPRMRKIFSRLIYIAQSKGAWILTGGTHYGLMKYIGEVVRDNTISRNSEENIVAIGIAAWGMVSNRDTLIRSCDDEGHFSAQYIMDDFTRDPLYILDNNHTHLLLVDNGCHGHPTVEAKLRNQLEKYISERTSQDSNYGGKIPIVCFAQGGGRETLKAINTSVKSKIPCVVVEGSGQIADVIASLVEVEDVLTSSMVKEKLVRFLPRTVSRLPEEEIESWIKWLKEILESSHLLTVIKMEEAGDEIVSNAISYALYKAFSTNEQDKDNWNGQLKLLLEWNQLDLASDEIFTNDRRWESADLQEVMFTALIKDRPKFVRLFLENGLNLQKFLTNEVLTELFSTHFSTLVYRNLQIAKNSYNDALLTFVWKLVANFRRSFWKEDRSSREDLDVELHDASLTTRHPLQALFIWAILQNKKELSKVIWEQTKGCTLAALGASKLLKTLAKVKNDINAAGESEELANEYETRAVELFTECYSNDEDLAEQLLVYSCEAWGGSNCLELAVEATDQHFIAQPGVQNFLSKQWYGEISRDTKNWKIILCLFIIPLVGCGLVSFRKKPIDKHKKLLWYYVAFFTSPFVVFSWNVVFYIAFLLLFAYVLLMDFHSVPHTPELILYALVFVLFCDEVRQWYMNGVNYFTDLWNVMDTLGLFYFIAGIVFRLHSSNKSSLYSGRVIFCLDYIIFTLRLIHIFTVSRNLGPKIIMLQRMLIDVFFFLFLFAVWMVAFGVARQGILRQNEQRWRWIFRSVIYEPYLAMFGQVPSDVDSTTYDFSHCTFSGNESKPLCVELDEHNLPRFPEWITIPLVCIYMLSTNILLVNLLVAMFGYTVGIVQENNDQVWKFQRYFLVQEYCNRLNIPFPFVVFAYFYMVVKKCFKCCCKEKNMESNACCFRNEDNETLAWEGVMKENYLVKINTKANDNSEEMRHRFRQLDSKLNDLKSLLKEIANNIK
T2 sequence (Q7Z2W7 whole entry): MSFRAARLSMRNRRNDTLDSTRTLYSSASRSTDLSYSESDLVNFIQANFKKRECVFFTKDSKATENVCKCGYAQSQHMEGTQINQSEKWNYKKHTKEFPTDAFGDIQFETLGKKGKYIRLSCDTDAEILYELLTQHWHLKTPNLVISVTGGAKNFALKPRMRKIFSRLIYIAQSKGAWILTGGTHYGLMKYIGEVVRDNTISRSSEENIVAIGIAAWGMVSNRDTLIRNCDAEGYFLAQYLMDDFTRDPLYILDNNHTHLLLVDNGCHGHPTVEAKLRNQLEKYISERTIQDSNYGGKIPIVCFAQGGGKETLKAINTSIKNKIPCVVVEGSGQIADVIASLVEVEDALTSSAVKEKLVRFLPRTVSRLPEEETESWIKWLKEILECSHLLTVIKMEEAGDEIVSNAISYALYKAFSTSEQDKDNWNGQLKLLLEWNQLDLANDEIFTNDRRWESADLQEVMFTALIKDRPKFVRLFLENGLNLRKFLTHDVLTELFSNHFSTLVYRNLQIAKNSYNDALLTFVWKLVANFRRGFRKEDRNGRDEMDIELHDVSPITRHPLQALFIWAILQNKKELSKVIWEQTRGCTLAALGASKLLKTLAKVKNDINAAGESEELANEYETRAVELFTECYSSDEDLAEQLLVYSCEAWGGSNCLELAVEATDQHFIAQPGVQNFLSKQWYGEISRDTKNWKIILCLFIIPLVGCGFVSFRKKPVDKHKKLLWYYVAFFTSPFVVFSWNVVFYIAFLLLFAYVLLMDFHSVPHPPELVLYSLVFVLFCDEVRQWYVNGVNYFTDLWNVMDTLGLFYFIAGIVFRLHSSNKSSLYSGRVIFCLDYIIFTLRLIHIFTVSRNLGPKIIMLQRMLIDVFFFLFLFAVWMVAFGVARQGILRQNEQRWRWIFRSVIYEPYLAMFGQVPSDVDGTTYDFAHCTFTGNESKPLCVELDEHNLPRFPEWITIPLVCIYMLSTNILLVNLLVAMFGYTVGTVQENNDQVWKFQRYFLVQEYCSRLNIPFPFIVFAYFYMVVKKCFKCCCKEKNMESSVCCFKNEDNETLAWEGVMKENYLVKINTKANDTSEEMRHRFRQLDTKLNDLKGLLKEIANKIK
T1 sequence (Q8R455 whole entry): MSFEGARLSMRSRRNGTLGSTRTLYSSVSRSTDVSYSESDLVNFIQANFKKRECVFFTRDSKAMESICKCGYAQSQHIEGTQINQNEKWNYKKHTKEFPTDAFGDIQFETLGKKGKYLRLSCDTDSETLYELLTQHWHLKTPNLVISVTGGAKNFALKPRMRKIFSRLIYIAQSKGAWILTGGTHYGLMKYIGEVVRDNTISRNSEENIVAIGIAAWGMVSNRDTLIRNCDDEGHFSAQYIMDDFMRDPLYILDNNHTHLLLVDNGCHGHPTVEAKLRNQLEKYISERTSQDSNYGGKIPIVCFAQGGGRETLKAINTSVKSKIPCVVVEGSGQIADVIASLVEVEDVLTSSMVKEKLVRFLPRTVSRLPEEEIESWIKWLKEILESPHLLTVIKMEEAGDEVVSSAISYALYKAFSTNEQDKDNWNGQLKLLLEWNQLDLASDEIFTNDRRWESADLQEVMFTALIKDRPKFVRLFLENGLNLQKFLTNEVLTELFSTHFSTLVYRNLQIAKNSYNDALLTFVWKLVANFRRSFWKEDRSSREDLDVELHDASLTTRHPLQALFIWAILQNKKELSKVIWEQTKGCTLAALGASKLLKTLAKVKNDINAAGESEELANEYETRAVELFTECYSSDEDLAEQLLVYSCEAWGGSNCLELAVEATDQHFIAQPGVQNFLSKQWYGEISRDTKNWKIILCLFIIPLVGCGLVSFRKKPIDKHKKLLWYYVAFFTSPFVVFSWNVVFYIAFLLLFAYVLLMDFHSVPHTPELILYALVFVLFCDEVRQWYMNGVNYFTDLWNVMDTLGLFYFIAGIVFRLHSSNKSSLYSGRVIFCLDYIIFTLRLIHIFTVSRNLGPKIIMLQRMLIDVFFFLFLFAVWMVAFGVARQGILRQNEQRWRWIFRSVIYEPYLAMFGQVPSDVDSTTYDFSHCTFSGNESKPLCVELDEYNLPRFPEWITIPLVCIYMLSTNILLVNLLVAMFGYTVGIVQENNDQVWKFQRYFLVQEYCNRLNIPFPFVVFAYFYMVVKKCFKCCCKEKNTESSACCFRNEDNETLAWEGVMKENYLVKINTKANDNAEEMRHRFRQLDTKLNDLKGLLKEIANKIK
T3 sequence (Q8R455 whole entry): as above
Sequence of human TRPA1 (O75762 whole entry): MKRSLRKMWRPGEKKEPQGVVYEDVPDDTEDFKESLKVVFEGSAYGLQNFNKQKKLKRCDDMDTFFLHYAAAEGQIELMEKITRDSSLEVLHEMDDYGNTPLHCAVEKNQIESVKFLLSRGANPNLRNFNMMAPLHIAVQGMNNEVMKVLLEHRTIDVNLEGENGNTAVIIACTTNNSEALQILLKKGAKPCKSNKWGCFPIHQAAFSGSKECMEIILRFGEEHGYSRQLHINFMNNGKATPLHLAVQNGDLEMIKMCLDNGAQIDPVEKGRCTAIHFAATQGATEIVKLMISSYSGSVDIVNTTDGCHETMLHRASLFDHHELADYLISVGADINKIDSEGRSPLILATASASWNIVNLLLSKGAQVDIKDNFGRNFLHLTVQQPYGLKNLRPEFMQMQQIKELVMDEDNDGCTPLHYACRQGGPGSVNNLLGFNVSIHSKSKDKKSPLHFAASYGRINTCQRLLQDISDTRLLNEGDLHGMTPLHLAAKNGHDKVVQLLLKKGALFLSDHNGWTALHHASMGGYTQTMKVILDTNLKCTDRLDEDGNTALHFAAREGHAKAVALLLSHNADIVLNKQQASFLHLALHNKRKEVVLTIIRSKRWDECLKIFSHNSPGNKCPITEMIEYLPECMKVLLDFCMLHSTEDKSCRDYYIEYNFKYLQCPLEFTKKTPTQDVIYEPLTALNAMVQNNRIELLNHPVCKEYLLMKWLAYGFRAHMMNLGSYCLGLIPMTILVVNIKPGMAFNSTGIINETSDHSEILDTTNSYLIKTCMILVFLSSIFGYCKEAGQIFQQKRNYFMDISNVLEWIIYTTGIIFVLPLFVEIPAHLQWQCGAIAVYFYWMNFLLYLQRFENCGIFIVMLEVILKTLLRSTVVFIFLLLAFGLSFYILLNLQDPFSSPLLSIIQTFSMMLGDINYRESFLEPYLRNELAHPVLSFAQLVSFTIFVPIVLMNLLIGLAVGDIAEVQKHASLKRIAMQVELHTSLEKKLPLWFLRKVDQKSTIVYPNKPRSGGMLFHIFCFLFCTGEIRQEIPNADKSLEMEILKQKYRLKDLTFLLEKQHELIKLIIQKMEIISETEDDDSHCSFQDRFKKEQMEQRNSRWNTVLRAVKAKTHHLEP

The IC50 is the concentration at which inhibition is half-maximal. For the compound `COc1cc(CN(CCN)C(=O)c2cccs2)ccc1OCc1ccccc1` [M8-B], the IC50 on rat TRPM8 (1 µM icilin, triplicate wells, read-out: IC50, icilin induced rat TRPM8 channel activation) came out at 11 ± 1.1 nM; on rat TRPM8 (100 µM menthol, triplicate wells, read-out: IC50, menthol induced rat TRPM8 channel activation), 2 ± 1.3 nM; at rat TRPM8 (cold 10°C, one experiment in triplicate wells, read-out: IC50, cold induced rat TRPM8 channel activation), 2 ± 1.2 nM; on human TRPM8 (1 µM icilin, triplicate wells, read-out: IC50, icilin induced human TRPM8 channel activation) it was 11 ± 1.2 nM; at human TRPM8 (100 µM menthol, triplicate wells, read-out: IC50, menthol induced human TRPM8 channel activation) it was 1 ± 1.4 nM; on human TRPM8 (cold 10°C, one experiment in triplicate wells, read-out: IC50, cold induced human TRPM8 channel activation) it was 3 ± 1.1 nM. Also, the IC50 was found to be 6 ± 1.1 nM at mouse TRPM8 (1 µM icilin, triplicate wells, read-out: IC50, icilin induced mouse TRPM8 channel activation); 2 ± 1.2 nM on mouse TRPM8 (100 µM menthol, triplicate wells, read-out: IC50, menthol induced mouse TRPM8 channel activation); 2 ± 1.2 nM at mouse TRPM8 (cold 10°C, one experiment in triplicate wells, read-out: IC50, cold induced mouse TRPM8 channel activation). Besides, the “block of icilin-induced 45Ca2+ uptake, human TRPM8 in CHO cells” value on human TRPM8 (1 µM icilin) was “fully; also recorded: completely blocked”. The “block of icilin-induced 45Ca2+ uptake, rat DRG neurons” value in assay [1] is “full inhibition”.

As to “SDVD GTTYDFAHC (N-terminal SDVD) [peptide, cognate peptide of ACC-049, amino acid residues 917-929 of human TRPM8]”, the “effect on heat activation of human TRPV1, single concentration” value in the assay with human TRPV1 was “no effects”. Also, the “block of icilin-induced 45Ca2+ uptake, human TRPM8 in CHO cells” value in the assay with human TRPM8 (1 µM icilin) is “no effects”. In the assay with human TRPM8 (ACC-049 and control IgG 2.5 µM, peptide 10 µM, cold, Fig. 2), the “blockade of cold activation of human TRPM8, single concentration” value is “no effects”. Also, the “blockade of icilin activation of human TRPM8, single concentration” value with human TRPM8 (ACC-049 and control IgG 2.5 µM, peptide 10 µM, icilin, Fig. 2) was “no effects”. Also, the “effect on noxious cold temperature activation of human TRPA1, single concentration” value in the assay with human TRPA1 is on record as “no effects”. The “block of icilin-induced 45Ca2+ uptake, rat DRG neurons” value in assay [1] is on record as “did not affect”.
